Results from ChEMBL document CHEMBL3352116, “Discovery heralds new approach to the treatment of cystic fibrosis” (J Med Chem, 2014).
pEC50: −log10 of the molar value.

Columns and labels:
[1] = target: Cystic fibrosis transmembrane conductance regulator (Homo sapiens, UniProt P13569, F508DEL/G551D); experiment: […] activity at human bronchial epithelium CFTR F508del and G551D mutant assessed as increase in channel gating
[2] = Inhibition of CYP450 (unknown origin); type: ADME; details: human
[3] = target: Cystic fibrosis transmembrane conductance regulator (Homo sapiens, UniProt P13569); experiment: Corrector activity at CFTR mutant (unknown origin) by phenotypic screening assay
[4] = Half life in rat; type: ADME, organism-based; details: in vivo
[5] = Oral bioavailability in rat; type: ADME, organism-based; details: in vivo

Cystic fibrosis transmembrane conductance regulator (Homo sapiens, UniProt P13569), sequence (P13569 whole entry, looked up, change not shown): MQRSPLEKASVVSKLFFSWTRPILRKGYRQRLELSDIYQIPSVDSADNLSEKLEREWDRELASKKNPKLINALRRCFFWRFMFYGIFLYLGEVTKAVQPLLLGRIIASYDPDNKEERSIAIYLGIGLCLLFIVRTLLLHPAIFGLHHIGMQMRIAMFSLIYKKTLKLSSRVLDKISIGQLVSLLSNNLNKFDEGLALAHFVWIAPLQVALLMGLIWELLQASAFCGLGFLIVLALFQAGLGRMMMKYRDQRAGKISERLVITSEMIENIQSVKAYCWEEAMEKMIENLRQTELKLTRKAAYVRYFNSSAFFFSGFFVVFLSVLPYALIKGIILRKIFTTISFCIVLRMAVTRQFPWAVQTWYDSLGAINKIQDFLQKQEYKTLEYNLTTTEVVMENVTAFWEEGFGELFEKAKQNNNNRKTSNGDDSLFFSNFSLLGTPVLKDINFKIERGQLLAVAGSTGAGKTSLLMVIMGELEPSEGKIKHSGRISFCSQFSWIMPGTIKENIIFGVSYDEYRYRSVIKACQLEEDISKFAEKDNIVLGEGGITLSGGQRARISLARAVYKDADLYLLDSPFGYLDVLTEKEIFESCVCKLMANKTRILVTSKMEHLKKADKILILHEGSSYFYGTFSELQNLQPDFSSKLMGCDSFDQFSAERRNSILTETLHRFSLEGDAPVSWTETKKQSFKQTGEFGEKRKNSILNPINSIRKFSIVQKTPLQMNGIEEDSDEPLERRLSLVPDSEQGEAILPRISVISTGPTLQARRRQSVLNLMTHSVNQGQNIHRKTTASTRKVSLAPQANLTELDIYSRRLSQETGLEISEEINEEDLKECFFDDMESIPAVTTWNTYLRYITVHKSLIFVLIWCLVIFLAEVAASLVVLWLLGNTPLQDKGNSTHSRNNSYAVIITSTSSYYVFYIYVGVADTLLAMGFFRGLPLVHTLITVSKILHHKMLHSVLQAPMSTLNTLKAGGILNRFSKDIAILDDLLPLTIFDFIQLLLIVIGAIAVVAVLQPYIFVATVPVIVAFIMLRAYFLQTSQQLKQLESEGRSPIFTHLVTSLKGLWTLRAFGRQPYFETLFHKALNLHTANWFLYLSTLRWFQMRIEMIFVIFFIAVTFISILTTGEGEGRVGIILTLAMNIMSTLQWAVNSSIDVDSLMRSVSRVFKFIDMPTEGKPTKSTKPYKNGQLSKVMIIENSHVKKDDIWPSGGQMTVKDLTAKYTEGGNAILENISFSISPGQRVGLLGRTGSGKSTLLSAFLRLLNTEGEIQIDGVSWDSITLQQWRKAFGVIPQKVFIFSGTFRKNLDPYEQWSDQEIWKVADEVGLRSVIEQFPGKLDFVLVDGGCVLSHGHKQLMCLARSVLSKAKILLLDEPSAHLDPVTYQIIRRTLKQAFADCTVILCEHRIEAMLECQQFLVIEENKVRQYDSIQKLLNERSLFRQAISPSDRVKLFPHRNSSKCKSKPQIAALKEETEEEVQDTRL
Cystic fibrosis transmembrane conductance regulator (Homo sapiens, UniProt P13569, F508DEL/G551D), sequence (P13569 as listed by the source): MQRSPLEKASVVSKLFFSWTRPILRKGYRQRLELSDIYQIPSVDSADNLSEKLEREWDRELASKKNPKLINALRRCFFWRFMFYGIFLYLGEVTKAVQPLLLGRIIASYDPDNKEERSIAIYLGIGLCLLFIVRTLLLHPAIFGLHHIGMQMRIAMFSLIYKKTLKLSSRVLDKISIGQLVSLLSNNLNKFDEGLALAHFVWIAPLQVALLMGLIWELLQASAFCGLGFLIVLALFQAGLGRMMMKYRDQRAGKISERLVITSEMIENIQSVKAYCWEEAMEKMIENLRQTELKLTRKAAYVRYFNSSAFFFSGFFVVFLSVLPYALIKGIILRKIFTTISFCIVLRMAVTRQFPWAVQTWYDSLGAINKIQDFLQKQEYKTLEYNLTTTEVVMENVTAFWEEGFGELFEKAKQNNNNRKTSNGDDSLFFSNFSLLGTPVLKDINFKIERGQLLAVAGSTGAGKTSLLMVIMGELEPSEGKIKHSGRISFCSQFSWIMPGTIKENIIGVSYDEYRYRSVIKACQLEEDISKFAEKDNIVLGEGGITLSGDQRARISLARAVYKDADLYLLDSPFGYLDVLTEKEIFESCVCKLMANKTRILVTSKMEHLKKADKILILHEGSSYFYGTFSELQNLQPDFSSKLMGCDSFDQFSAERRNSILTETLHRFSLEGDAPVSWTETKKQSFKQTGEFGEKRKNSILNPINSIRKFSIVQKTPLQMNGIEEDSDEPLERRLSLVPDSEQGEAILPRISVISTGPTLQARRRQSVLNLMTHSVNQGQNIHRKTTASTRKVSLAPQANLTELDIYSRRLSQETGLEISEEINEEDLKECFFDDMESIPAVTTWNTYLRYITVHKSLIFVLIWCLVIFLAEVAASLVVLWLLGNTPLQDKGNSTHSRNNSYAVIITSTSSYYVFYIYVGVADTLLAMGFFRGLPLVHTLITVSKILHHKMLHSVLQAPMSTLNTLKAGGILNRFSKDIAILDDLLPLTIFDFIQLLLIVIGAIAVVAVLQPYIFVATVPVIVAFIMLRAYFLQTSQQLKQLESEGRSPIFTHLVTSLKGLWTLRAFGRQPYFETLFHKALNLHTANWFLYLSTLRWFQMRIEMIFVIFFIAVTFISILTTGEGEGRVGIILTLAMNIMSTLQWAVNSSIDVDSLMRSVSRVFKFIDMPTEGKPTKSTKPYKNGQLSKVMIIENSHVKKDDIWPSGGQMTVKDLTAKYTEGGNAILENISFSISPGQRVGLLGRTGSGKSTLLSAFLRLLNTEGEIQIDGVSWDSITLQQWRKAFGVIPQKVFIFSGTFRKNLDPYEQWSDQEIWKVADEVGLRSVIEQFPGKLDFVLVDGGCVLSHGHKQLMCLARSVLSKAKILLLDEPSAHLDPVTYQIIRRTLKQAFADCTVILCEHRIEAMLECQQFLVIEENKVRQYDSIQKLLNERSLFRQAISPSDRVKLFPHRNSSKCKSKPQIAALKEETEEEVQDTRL

Row | Structure (SMILES) | pEC50 [1] | inhibition (INH) [2] | pEC50 [3] | half-life [4] | bioavailability [5]
1 | CC(C)(C)c1cc(C(C)(C)C)c(NC(=O)c2c[nH]c3ccccc3c2=O)cc1O [IVACAFTOR] | 6.63 | Not Active | 8.52 | 570 min | 55%
2 | O=C(Nc1ccc2cc[nH]c2c1)c1c[nH]c2ccccc2c1=O | – | – | 7.00 | – | –
3 | O=C(c1c[nH]c2ccccc2c1=O)N(Cc1ccccc1)Cc1ccccc1 | – | – | 5.68 | – | –
